Test results as given in ChEMBL document CHEMBL3885861, “Open TG-GATES”.

Species: Rattus norvegicus
Experiment: Open TG-GATES - Regimen: Single
Assay type: toxicity, organism-based, Sprague-Dawley
Set-up: regimen Single, gender Male, age 6 weeks
Conditions: in vivo, po, 50 mg/kg, route gavage, dose level Middle; for APTT / Bas / Eos / Fbg / Hb / Ht / Lym / MCHC / MCV / Mono / Neu / PT / Plat / RBC / Ret / WBC: tissue Blood; for KIDNEY_L / KIDNEY_R / KIDNEY_TOTAL: tissue Kidney; for LIVER: tissue Liver; for ALP / ALT / AST / BUN / CRE / Ca / Cl / DBIL / GLC / IP / K / LDH / Na / PL / RALB / TBIL / TC / TG / TP / gamma-GTP: tissue Plasma

With `C1CCC(C(CC2CCCCN2)C2CCCCC2)CC1` (centres undefined) [PERHEXILINE] the TERMINAL_BW (3 h) was 207.9 g, the APTT (3 h) was 22 s and the Bas (3 h) was 0%. For the same compound, the Eos (3 h) was 0.8%, the Fbg (3 h) was 319.8 mg/dL and the Hb (3 h) was 13.6 g/dL. It also gave a Ht (3 h) of 40.9%, a Lym (3 h) of 77.6% and an MCHC (3 h) of 33.3%. For the same compound, the MCV (3 h) was 62.5 fL, the Mono (3 h) was 1.8% and the Neu (3 h) was 19%. The PT (3 h) was 15.7 s, the Plat (3 h) was 132.9 x10_4/uL and the RBC (3 h) was 656 x10_4/ul. For the same compound, the Ret (3 h) was 6.5%, the WBC (3 h) was 52.6 x10_2/uL and the KIDNEY_L (3 h) was 1 g. It also gave a KIDNEY_R (3 h) of 1 g, a KIDNEY_TOTAL (3 h) of 2 g and an LIVER (3 h) of 9.4 g. For the same compound, the ALP (3 h) was 1767.8 IU/L, the ALT (3 h) was 47.4 IU/L and the AST (3 h) was 72 IU/L. For the same compound, the BUN (3 h) was 10.8 mg/dL, the CRE (3 h) was 0.1 mg/dL and the Ca (3 h) was 10.8 mg/dL. For the same compound, the Cl (3 h) was 105 meq/L, the DBIL (3 h) was 0.004 mg/dL and the GLC (3 h) was 164.6 mg/dL. It also gave an IP (3 h) of 9.2 mg/dL, a K (3 h) of 4 meq/L and an LDH (3 h) of 190.6 IU/L. For the same compound, the Na (3 h) was 140.4 meq/L, the PL (3 h) was 140.2 mg/dL and the RALB (3 h) was 3.1 g/dL. The TBIL (3 h) was 0.012 mg/dL, the TC (3 h) was 73 mg/dL and the TG (3 h) was 65.8 mg/dL. For the same compound, the TP (3 h) was 5.7 g/dL, the gamma-GTP (3 h) was 0.8 IU/L and the TERMINAL_BW (6 h) was 216.9 g. For the same compound, the APTT (6 h) was 21.5 s, the Bas (6 h) was 0% and the Eos (6 h) was 1%. For the same compound, the Fbg (6 h) was 325.6 mg/dL, the Hb (6 h) was 13 g/dL and the Ht (6 h) was 38.7%. It also gave a Lym (6 h) of 72.8%, an MCHC (6 h) of 33.5% and an MCV (6 h) of 62.6 fL. It also gave a Mono (6 h) of 2.8%, a Neu (6 h) of 22.2% and a PT (6 h) of 15.7 s. It also gave a Plat (6 h) of 126.8 x10_4/uL, an RBC (6 h) of 619.8 x10_4/ul and a Ret (6 h) of 7.7%. For the same compound, the WBC (6 h) was 94.8 x10_2/uL, the KIDNEY_L (6 h) was 1.1 g and the KIDNEY_R (6 h) was 1 g. It also gave a KIDNEY_TOTAL (6 h) of 2.1 g, an LIVER (6 h) of 9.5 g and an ALP (6 h) of 1607.2 IU/L. The ALT (6 h) was 40.4 IU/L, the AST (6 h) was 69.8 IU/L and the BUN (6 h) was 11.4 mg/dL. For the same compound, the CRE (6 h) was 0.2 mg/dL, the Ca (6 h) was 10.9 mg/dL and the Cl (6 h) was 105.2 meq/L. It also gave a DBIL (6 h) of 0.006 mg/dL, a GLC (6 h) of 161 mg/dL and an IP (6 h) of 10.1 mg/dL. The K (6 h) was 4.5 meq/L, the LDH (6 h) was 182.6 IU/L and the Na (6 h) was 139 meq/L. It also gave a PL (6 h) of 137.8 mg/dL, an RALB (6 h) of 3 g/dL and a TBIL (6 h) of 0.014 mg/dL. It also gave a TC (6 h) of 69.2 mg/dL, a TG (6 h) of 81.6 mg/dL and a TP (6 h) of 5.6 g/dL. The gamma-GTP (6 h) was 1 IU/L, the TERMINAL_BW (9 h) was 203.5 g and the APTT (9 h) was 21 s. The Bas (9 h) was 0%, the Eos (9 h) was 0.6% and the Fbg (9 h) was 325.2 mg/dL. The Hb (9 h) was 13.1 g/dL, the Ht (9 h) was 39.1% and the Lym (9 h) was 76.2%. For the same compound, the MCHC (9 h) was 33.6%, the MCV (9 h) was 63.4 fL and the Mono (9 h) was 1.8%. The Neu (9 h) was 20.2%, the PT (9 h) was 15.5 s and the Plat (9 h) was 130 x10_4/uL. For the same compound, the RBC (9 h) was 617.6 x10_4/ul, the Ret (9 h) was 7.4% and the WBC (9 h) was 69.7 x10_2/uL. The KIDNEY_L (9 h) was 1 g, the KIDNEY_R (9 h) was 1 g and the KIDNEY_TOTAL (9 h) was 1.9 g. The LIVER (9 h) was 8.5 g, the ALP (9 h) was 1598.6 IU/L and the ALT (9 h) was 40.2 IU/L. It also gave an AST (9 h) of 69 IU/L, a BUN (9 h) of 11 mg/dL and a CRE (9 h) of 0.1 mg/dL. For the same compound, the Ca (9 h) was 10.8 mg/dL, the Cl (9 h) was 105.4 meq/L and the DBIL (9 h) was 0.002 mg/dL. For the same compound, the GLC (9 h) was 169.8 mg/dL, the IP (9 h) was 9.9 mg/dL and the K (9 h) was 4.1 meq/L. For the same compound, the LDH (9 h) was 238.2 IU/L, the Na (9 h) was 139.2 meq/L and the PL (9 h) was 137 mg/dL. It also gave an RALB (9 h) of 3 g/dL, a TBIL (9 h) of 0.018 mg/dL and a TC (9 h) of 78.6 mg/dL. The TG (9 h) was 39.4 mg/dL, the TP (9 h) was 5.6 g/dL and the gamma-GTP (9 h) was 1 IU/L. For the same compound, the TERMINAL_BW (24 h) was 220 g, the APTT (24 h) was 20.4 s and the Bas (24 h) was 0%. For the same compound, the Eos (24 h) was 1%, the Fbg (24 h) was 309.4 mg/dL and the Hb (24 h) was 13.5 g/dL. It also gave a Ht (24 h) of 40.3%, a Lym (24 h) of 82% and an MCHC (24 h) of 33.4%. It also gave an MCV (24 h) of 63.4 fL, a Mono (24 h) of 2% and a Neu (24 h) of 14%. For the same compound, the PT (24 h) was 15.6 s, the Plat (24 h) was 116.9 x10_4/uL and the RBC (24 h) was 635.4 x10_4/ul. The Ret (24 h) was 6.5%, the WBC (24 h) was 92.8 x10_2/uL and the KIDNEY_L (24 h) was 0.9 g. The KIDNEY_R (24 h) was 1 g, the KIDNEY_TOTAL (24 h) was 1.9 g and the LIVER (24 h) was 10.2 g. For the same compound, the ALP (24 h) was 1673.6 IU/L, the ALT (24 h) was 43.2 IU/L and the AST (24 h) was 72.8 IU/L. For the same compound, the BUN (24 h) was 15.4 mg/dL, the CRE (24 h) was 0.2 mg/dL and the Ca (24 h) was 10.7 mg/dL. The Cl (24 h) was 108 meq/L, the DBIL (24 h) was 0 mg/dL and the GLC (24 h) was 179.8 mg/dL. It also gave an IP (24 h) of 7.4 mg/dL, a K (24 h) of 4.4 meq/L and an LDH (24 h) of 240.6 IU/L. The Na (24 h) was 143.4 meq/L, the PL (24 h) was 146.4 mg/dL and the RALB (24 h) was 3.2 g/dL. It also gave a TBIL (24 h) of 0.01 mg/dL, a TC (24 h) of 72 mg/dL and a TG (24 h) of 117.2 mg/dL. It also gave a TP (24 h) of 5.6 g/dL and a gamma-GTP (24 h) of 1 IU/L.
